{"source": "patent US10632106B2", "about": "“Methods of cancer treatment with 2-(1′H-Indole-3′-carbonyl)-thiazole-4-carboxylic acid methyl ester” (Ariagen, Inc., priority 2009, dated 2020)", "system": "human liver cancer cell line HepG2 xenografts", "assay": "HepG2 xenograft growth inhibition in nude mice", "type": "in vivo", "conditions": "80 mg/kg i.p. once daily", "protocol": "All the procedures related to animal handling, care, and the treatment in the study were performed following guidelines approved by an Institutional Animal Care and Use Committee (IACUC) of Crown Bioscience, Inc. (Santa Clara, Calif., USA, a contract research organization we hired) based on the guidance of the Association for Assessment and Accreditation of Laboratory Animal Care (AAALAC). Animals were checked for any effects of tumor growth and drug treatment on normal behavior such as mobility, food and water consumption, body weight gain/loss (gross body weights were measured twice weekly), eye/hair matting, and any other abnormal effect. Death and observed clinical signs were recorded on the basis of the number of animals within each group. Individual animals with a tumor volume exceeding 3,000 mm^3 or animals of a group with a mean tumor volume exceeding 2,000 mm^3 were euthanized. In addition, animals showing signs of severe distress and/or pain, dropping body weight more than 20% from that at the start of treatment, or losing the capability of accessing adequate food or water were humanely sacrificed.\nEach mouse was inoculated subcutaneously at the right flank with the LNCaP cells (1×10^7) in 0.1 ml of PBS for tumor development. When a mean tumor volume reached around 150 mm^3, the tumor-bearing mice were divided into homogeneous blocks based on their tumor volumes followed by a randomization of mice in each block into treatment groups (thus minimizing variations in tumor response to treatments due to the differential in initial mean tumor volumes). Each treatment group was consisted of 8 tumor-bearing mice. Vehicle (DMSO) or ITE in the vehicle at specified doses were administered to the mice by either i.p. (intraperitoneal) or p.o. (oral) injection once or twice daily for 28 continuous days as indicated.\nTumor volume was measured twice weekly in two dimensions using a caliper and the volume was calculated with a formula of: V=0.5 a×b^2, where a and b are the long and short diameter (in mm) of a tumor, respectively. The tumor volume was then used for calculations of both TGI (Tumor Growth Inhibition) and TGD (Tumor Growth Delay). The TGI was determined by: TGI=ΔT/ΔC×100%, where ΔT was a difference between the mean tumor volume at a specified day of observation and that at the day treatment starts (day 1) for a drug treated group whereas ΔC was the same difference measured for the control group. The TGD was calculated as: TGD=T−C, where T was the time (in days) required for tumors in a drug treated group to reach a predetermined mean tumor volume and C the time (in days) in the control group to reach the same volume. A tumor weight was derived by equating 1,000 mm^3 in volume to 1,000 mg in weight. A net body weight was then derived by subtracting a tumor weight from a corresponding gross body weight with the tumor.\nSummary statistics, including mean and the standard error of the mean (SEM), are provided for the tumor volume of each group at each time point. Statistical analysis of difference in tumor volume among groups was conducted on a data set either at the best therapeutic time point or at the final dosing day as indicated. The tumor volume data were log-transformed and evaluated using a one-way ANOVA followed by Tukey's test when significance was observed. All data were analyzed using SPSS 16.0 and p<0.05 was considered to be statistically significant.\nThe culture and inoculation of human prostate cancer cell line LNCaP were as described in Example 1. The manipulation for human liver cancer cell line HepG2 (ATCC) was similar as that for LNCaP except that DMEM (instead of RPMI-1640) medium was used, the L-glutamine was not used, and 2×10^6 cells were used for inoculation into female nude mice. The handling of human ovarian cancer cell line OVCAR-3 (ATCC) was the same as that of LNCaP except that the DMEM medium was used and 5×10^6 cells were used for inoculation into female nude mice. […]", "data": [{"smiles": "COC(=O)c1csc(C(=O)c2c[nH]c3ccccc23)n1", "note": "[ITE, 2-(1′H-indole-3′-carbonyl)-thiazole-4-carboxylic acid methyl ester]", "values": [{"measurement": "net body weight loss", "result": "no obvious net body weight loss"}, {"measurement": "TGD (Tumor Growth Delay)", "setting": "at a tumor volume of 800 mm^3", "result": 29, "unit": "days"}, {"measurement": "TGI (Tumor Growth Inhibition)", "setting": "day 22, TGI=ΔT/ΔC×100%", "result": 25, "unit": "%"}]}]}
